Experimental data published in publication PMC12651750 (Cells, 2025).
Where two headings read alike, the source gives them in different places.

Key:
[1] = test system: Jurkat, human leukemic T cell line; experiment: Anti-proliferation MTT / CCK-8 assay; assay type: cell-based; details: 72 h; for IC50: Homo sapiens, Jurkat
Procedure: (§1) These cells were purchased from the National Collection of Authenticated Cell Cultures (Shanghai, China).
(§2) The concentration of the cell suspension was adjusted to the appropriate concentration with fresh medium (the number of cells was about 30–40% of the bottom area of the well plate). 150 μL (about 1 × 10^4 cells) of prepared cell suspension containing different concentrations of NBU-2 were added to a 96-microtiter plate, and 3 replicate wells were set up for each concentration. If the cells were adherent, the cells were first allowed to grow overnight in 96 microtiter plates until the cells were adherent, and then the old medium was replaced with the drug-containing medium. The plates were incubated in a 5% CO2 cell incubator at 37 °C for 72 h. Then, 15 μL of MTT solution was added to each well, 100 μL of 10% SDS solution (pH = 2) was added after 4 h, and the plate was incubated at 37 °C with 5% CO2 overnight to fully dissolve the crystals.
(§3) The cells (about 1 × 10^4 cells) were treated with different concentrations of NBU-2 and DMSO control for different times (24 h, 48 h, 72 h), with 3 replicate wells for each concentration. Incubate at 37 °C in a 5% CO2 cell culture incubator. After a predetermined time, 10 μL of CCK-8 was added to each well and incubated for 2 h. The absorbance was measured at the excitation wavelength of 450 nm.

Jurkat cells [2] = experiment: Reactive oxygen species assay (DCFH-DA probe); assay type: cell-based, human; details: 0.2, 1, 5 µM, 48 h; concentration-dependent
Procedure: Cells were treated with 0.2 µM, 1 µM, 5 µM, and DMSO for 48 h. Then the probes were loaded using serum-free medium and incubated for 20 min at 37 °C in a cell incubator. Next, the cells were collected.

Jurkat cells [3] = experiment: Annexin V-FITC/PI apoptosis assay (flow cytometry); assay type: cell-based, human; details: 48 h
Procedure: Apoptosis was assessed using an Annexin V-FITC Apoptosis Detection Kit according to the manufacturer’s instructions. Briefly, cells were double-stained with fluorescein isothiocyanate (FITC)-conjugated Annexin V and propidium iodide (PI). Jurkat cells were cultured to the appropriate density. Three sets of concentration gradients, namely 0.2 μM, 1 μM, and 5 μM, were established while DMSO was used as the control. The Jurkat cells were cultured for 48 h. Centrifuge at 1000× g for 5 min to precipitate the cells. We collected the cells, added the staining solution according to the instructions of the Annexin V-FITC Apoptosis Detection Kit to complete the staining, and immediately tested the cells on Flow cytometry.

Jurkat cells [4] = experiment: Cell cycle analysis (propidium iodide, flow cytometry); assay type: cell-based, human; details: 48 h
Procedure: Jurkat cells were cultured to the appropriate density. Jurkat cells were stimulated with three concentration gradients of 0.2 µM, 1 µM, and 5 µM of NBU-2, and DMSO (as a control) for 48 h. Cells were collected, fixed overnight using pre-cooled 70% ethanol, and then stained according to the instructions. Subsequently, flow cytometry was used to detect using flow cytometry.

HDAC1 = HDAC1 (Homo sapiens, UniProt Q13547); experiment: In vitro HDAC enzymatic inhibition assay (HDAC kit, fluorescence)
Procedure: Enzymatic assays were performed by Shanghai ChemPartner according to the HDAC kit protocol. […] Fluorescence was recorded at 355 nm excitation and 460 nm emission on a Synergy MX reader (PerkinElmer Life Sciences, Boston, MA, USA). IC50 values were derived from dose–response curves.

[5] = test system: HUVEC, human umbilical vein endothelial cells; experiment: Toxicity on normal cells (MTT / CCK-8 assay); assay type: cell-based
Procedure: as §1, §2, §3

Jurkat cells [6] = experiment: Western blot of protein levels; assay type: cell-based, human; details: 0.2, 1, 5 µM, 48 h
Procedure: Jurkat cells were stimulated with NBU-2 (0.2 µM, 1 µM, 5 µM) and DMSO, respectively, for 48 h. Cells were lysed by the addition of appropriate RIPA Lysis Buffer (containing protease inhibitors and phosphatase inhibitors), and protein concentrations were determined using the BCA assay. Centrifuge the above cell lysates at 12,000× g for 10 min at 4 °C and retain the supernatant. After diluting the samples to the same concentration with lysate, add the corresponding volume of SDS-PAGE protein uploading buffer (5×), and the proteins were denatured by boiling at 100 °C for 10 min. According to the molecular weight of the target protein, we selected the corresponding concentration of the gel for electrophoresis. After electrophoresis, the proteins on the gel were transferred to the PVDF membrane. The transfer time could be adjusted appropriately according to the molecular weight of the proteins. Subsequently, the corresponding protein primary antibody was taken, and the corresponding antibody was diluted according to the instructions and incubated overnight at 4 °C on a shaker. The following day, it was conjugated to the secondary antibody. The protein bands were then visualized under the ChemiDoc system using the chemiluminescent developer. Antibodies HDAC1 (Cat#10197-1-AP), HDAC6 (Cat#12834-1-AP), Bax (Cat#60267-1-1), BAD (Cat#10435-1-AP), Bcl-2 (Cat#12789-1-AP), Bcl-xl (Cat#10783-1-AP), Caspase3/P17/P19 (Cat#19677-1-AP), Caspase8/P43/P18 (Cat#13423-1-AP), and P21 (Cat#10355-1-AP) were purchased from Wuhan, China. Antibody actin (Cat#21338-1) was purchased from SAB, China. Acetyl-Histone H3 (Cat#AF1684), Acetyl-Histone H4 (Cat#AJ4218), Phos-AKT1 (Cat#AF1546), CDK4 (Cat#AF2515), Cyclin D1 (Cat#AF0126), and Phos-RB1 (Cat#AF1135) were purchased from Beyotime International, Nantong, China. H3 (Cat#A2348) and Caspase3 (A19653) were purchased from ABclonal, Wuhan, China. Cleaved-Caspase9 (Cat#52873T) was purchased from Cell Signal Technology, Danvers, MA, USA.

Chain of HDAC1 (Q13547 whole entry): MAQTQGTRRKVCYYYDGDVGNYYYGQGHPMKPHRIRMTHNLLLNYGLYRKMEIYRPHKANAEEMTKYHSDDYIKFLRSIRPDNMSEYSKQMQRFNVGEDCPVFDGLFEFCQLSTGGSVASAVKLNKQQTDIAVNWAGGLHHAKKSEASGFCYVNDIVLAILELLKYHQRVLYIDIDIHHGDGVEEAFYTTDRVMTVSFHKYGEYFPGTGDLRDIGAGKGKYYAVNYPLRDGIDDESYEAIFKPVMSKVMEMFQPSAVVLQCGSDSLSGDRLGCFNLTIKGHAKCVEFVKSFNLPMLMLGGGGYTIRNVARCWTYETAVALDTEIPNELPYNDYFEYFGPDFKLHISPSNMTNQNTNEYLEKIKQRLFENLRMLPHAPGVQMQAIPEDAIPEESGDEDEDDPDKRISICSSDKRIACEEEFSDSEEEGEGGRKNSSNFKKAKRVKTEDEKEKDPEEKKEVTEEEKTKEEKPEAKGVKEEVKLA

## Cc1cccc2c(=O)c3c(NCCCCCC(=O)NO)ccc([N+](=O)[O-])c3[nH]c12 [NBU-2, N-hydroxy-6-((5-methyl-4-nitro-9-oxo-9,10-dihydroacridin-1-yl)amino)hexanamide]
[1]; CCK-8, 24 h, 48 h, various concentrations
  Inhibitory effect on Jurkat cells over time: concentration and time-dependent
[1]; read-out: IC50 against Jurkat cells
  IC50: 860 nM
[1]; read-out: IC50 proliferation Jurkat, heading: IC50 proliferation Jurkat, mean ± SEM of three independent assays
  IC50: 860 ± 130 nM
Jurkat cells [2]
  Levels of reactive oxygen species relative to DMSO: significantly increased
Jurkat cells [3]; 0.2 μM
  Percentage of cells in early apoptotic stage (Q3): 11.5%
Jurkat cells [3]; 1 μM
  Percentage of cells in early apoptotic stage (Q3): 16.1%
Jurkat cells [3]; 5 μM
  Percentage of cells in early apoptotic stage (Q3): 84.7%
Jurkat cells [4]; 0.2 μM
  Percentage of cells in G0/G1 phase (2N): 35.3%
Jurkat cells [4]; 1 μM
  Percentage of cells in G0/G1 phase (2N): 40.4%
Jurkat cells [4]; 5 μM
  Percentage of cells in G0/G1 phase (2N): 57.9%
HDAC1
  IC50: 7.75 ± 0.57 nM
[5]; 72 h, read-out: IC50 anti-proliferative activity against HUVECs
  IC50: 35600 nM
[5]; read-out: IC50 proliferation HUVEC (normal cells), heading: IC50 proliferation HUVEC, 72 h, mean ± SEM of three independent assays
  IC50: 35600 ± 7300 nM
Jurkat cells [6]
  Ac-H4 level: no significant change
  BAD expression: unaffected
  Bcl-2 expression: reduced
  Bcl-XL expression: reduced
  Caspase-3 (prototype) expression: did not affect
  Caspase-8 (prototype) expression: did not affect
  Caspase-9 (prototype) expression: did not affect
  HDAC1 protein expression level: not affected
  HDAC6 protein expression level: not affected
  Protein level of p-Akt (Ser473): significantly reduced
  Total histone H3: not affected
Jurkat cells [6]; concentration-dependent
  CDK4 expression: inhibited
  Cyclin D1 expression: inhibited
  Intracellular Ac-H3 protein level: significantly increased
  p21 expression: increased
Jurkat cells [6]; with concentration
  BAX expression: increased
Jurkat cells [6]; with increasing concentration
  Cleaved-Caspase-3 expression: increased
  Cleaved-Caspase-9 expression: increased
  p-Rb expression: decreased
